Each compound was assayed against T1, Aldo-keto reductase family 1 member B1 (Homo sapiens, UniProt P15121) (assay: Compound was evaluated for inhibition of human placental aldose reductase (HPAR) activity with glyceraldehyde as substrate).

SMILES | IC50 [nM]
C[S+]([O-])c1ccc(Cl)cc1-c1[nH]c(=O)[nH]c1O (configuration not stated) | 250
CS(=O)(=O)c1ccc(Cl)cc1-c1[nH]c(=O)[nH]c1O | 50

These compounds were tested against T1, Aldo-keto reductase family 1 member B1 (assay: ChEBML_157077).
Excerpt: Inhibition of human placental aldose reductase (HPAR) activity with glyceraldehyde as substrate

SMILES | IC50 [nM]
CS(=O)(=O)c1ccc(F)cc1-c1[nH]c(=O)[nH]c1O | 610
CCCCCCS(=O)(=O)c1ccc(Cl)cc1-c1[nH]c(=O)[nH]c1O | 230
O=c1[nH]c(O)c(-c2cc(Cl)ccc2S(=O)(=O)Nc2ccc(F)cc2)[nH]1 | 230
Cc1cc(Cl)cc(-c2[nH]c(=O)[nH]c2O)c1S(C)(=O)=O | 270
CCCS(=O)(=O)c1ccc(Cl)cc1-c1[nH]c(=O)[nH]c1O | 250
CS(=O)(=O)c1c(-c2[nH]c(=O)[nH]c2O)cc(Cl)cc1C(F)(F)F | 580
O=c1[nH]c(O)c(-c2cc(Cl)ccc2S(=O)(=O)Cc2ccc(Cl)cc2)[nH]1 | 270
CCCCCS(=O)(=O)c1ccc(Cl)cc1-c1[nH]c(=O)[nH]c1O | 50
CCCNS(=O)(=O)c1ccc(Cl)cc1-c1[nH]c(=O)[nH]c1O | 580
CS(=O)(=O)c1c(Cl)cc(Cl)cc1-c1[nH]c(=O)[nH]c1O | 610
